From PubChem BioAssay (NCI)
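Cultured in 96-well plates, cells were exposed to test compound for 48 hours across five concentrations. TGI: total growth inhibition.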

Legend:
Assay in all cases: NCI anticancer screen, dose series, 48 h
ACHN renal = test system: ACHN renal
CAKI-1 renal = test system: CAKI-1 renal
HOP-62 NSCLC = test system: HOP-62 NSCLC
KM12 colon = test system: KM12 colon
LOX IMVI melanoma = test system: LOX IMVI melanoma
MCF7 breast = test system: MCF7 breast
MDA-MB-435 = test system: MDA-MB-435
RPMI-8226 leukemia = test system: RPMI-8226 leukemia
SF-268 CNS = test system: SF-268 CNS
SNB-75 CNS = test system: SNB-75 CNS

Structure (SMILES) | TGI (ACHN renal) [µM] | TGI (CAKI-1 renal) [µM] | TGI (HOP-62 NSCLC) [µM] | TGI (KM12 colon) [µM] | TGI (LOX IMVI melanoma) [µM] | TGI (MCF7 breast) [µM] | TGI (MDA-MB-435) [µM] | TGI (RPMI-8226 leukemia) [µM] | TGI (SF-268 CNS) [µM] | TGI (SNB-75 CNS) [µM]
Clc1ccc(N=C/C=C/Nc2ccc(Cl)cn2)nc1 | 25.1 | 25.1 | 31 | 21 | 19.8 | 31.6 | 27.6 | 37.1 | 30.6 | 25.7
O=C(O)CC(C(=O)O)c1ccccc1[N+](=O)[O-] (stereo not given) | > 100 | > 100 | > 100 | > 100 | > 100 | > 100 | > 100 | > 100 | > 100 | > 100
CC1=C(/C=C/C(C)=C/C=C/C(C)=C/C(=O)OCC2OC(n3cc(F)c(=O)[nH]c3=O)CC2OC(=O)/C=C(C)/C=C/C=C(C)/C=C/C2=C(C)CCCC2(C)C)C(C)(C)CCC1 (stereo not given) | > 48.3 | > 100 | > 27.9 | > 74.7 | 25.8 | 36.8 | > 65.8 | 42.6 | > 85.3 | > 100
Clc1ccc(-c2nn3c(CCCCCCCCc4nnc5sc(-c6ccc(Cl)cc6)nn45)nnc3s2)cc1 | > 100 | 46.1 | > 83.2 | 61.3 | 24.5 | > 73.3 | > 88 | 72.2 | > 100 | 75.3
COc1cc(NS(C)(=O)=O)ccc1NCc1cnc2ccc3[nH]c(C)ccc3c12 | > 100 | 68.8 | > 100 | > 100 | > 100 | > 100 | 80.4 | 45.2 | > 100 | 78.4
CSc1ccc2c(cc1=O)[C@@H](NC(C)=O)CCc1cc(O)c(O)c(O)c1-2 | 46.8 | > 100 | 32.3 | 41.4 | > 100 | 19.8 | 29.9 | > 100 | 38.6 | 53
CC/C(=N\NC(=O)c1cccnc1)c1ccc2c(c1)OCCO2 | > 100 | > 100 | > 100 | > 100 | > 100 | > 100 | > 100 | > 100 | > 100 | > 100
Cc1ccc(Nc2nc(=S)[nH]c3[nH]ncc23)cc1 | > 100 | > 100 | > 100 | > 100 | > 100 | > 100 | > 100 | > 100 | > 100 | > 100
COc1c2c(c(OC)c3c1c(=O)c1ccccc1n3C)OCO2 | > 100 | > 100 | > 100 | > 41.9 | > 100 | > 100 | 6.46 | > 100 | > 100 | > 100
O=C(c1ccccc1)c1ccc(C(c2c(O)c3ccccc3oc2=O)c2c(O)c3ccccc3oc2=O)cc1 | 48.6 | 25.3 | > 57.3 | 37.1 | > 100 | > 100 | > 74.2 | 60.9 | 64.7 | 62.4
CCCCCCCCCOC(=O)c1cnc(Cl)cn1 | 33.5 | 31.8 | 44.9 | 33.4 | 34.4 | 57.7 | 40.8 | 63.5 | 46.3 | 51.5
CCN(CC)c1ccc(/C=C(\C#N)c2nc(N)nc(N3N=C(C)CC3(C)C)n2)cc1 | 27.9 | 28.4 | 23.6 | > 100 | 32.7 | > 100 | > 100 | > 100 | > 54 | 28.8
C=C(O)c1ccccc1C#Cc1ccccc1C(=O)OC | > 10 | > 10 | > 10 | > 10 | > 10 | > 10 | > 10 | > 10 | > 10 | > 10
COc1ccc(OC)c(C2CCc3nc4nc(N)nc(N)c4cc3C2)c1 (stereo not given) | 29.5 | > 56.2 | 5.04 | 5.14 | 8.14 | 3.68 | 4.09 | 19 | 10.4 | 4.1
CN1C2CCC1CC(OC(c1ccccc1)c1ccccc1)C2 (stereo not given) | 59.2 | > 100 | 43 | 37.9 | 29.4 | 26.9 | 29.8 | 33.4 | 41.5 | 72.8
CCN1CC2=C(N=c3s/c(=C\c4ccc(Cl)cc4)c(=O)n3C2c2ccc(Cl)cc2)/C(=C/c2ccc(Cl)cc2)C1 (stereo not given) | > 100 | > 100 | 90.4 | > 100 | > 100 | > 100 | > 100 | > 100 | 80.6 | 9.74
C/C(=N/NC(=S)Nc1ccccc1Cl)c1ccccn1 | 8.59 | 19.7 | 12.4 | 18.7 | 16 | 0.27 | 17.1 | 47.3 | 34.6 | 30.5
Cc1c(N2C(=O)/C(=C/C=C/c3ccccc3)N=C2c2ccccc2)c(=O)n(-c2ccccc2)n1C | 34.1 | > 100 | 85.3 | 80.3 | 52 | > 100 | 33.1 | 47.6 | 68.9 | 32.1
Cc1ccc(S(=O)ON2CCC(C(=O)O)(c3ccccc3)CC2)cc1 (stereo not given) | > 100 | > 100 | > 100 | > 100 | > 100 | > 100 | > 100 | > 100 | > 100 | > 100
Brc1cccc(/C=C/CN2CCN(CCOC(c3ccccc3)c3ccccc3)CC2)c1 | 33.1 | 30.2 | 30.1 | 31.3 | 27.6 | 29.5 | 25.2 | 19.4 | 39.6 | 20.2
O=C(Cn1c(=O)ccn(C2OC(CO)C(O)C2F)c1=O)c1ccc(F)cc1 (stereo not given) | > 100 | > 100 | > 100 | > 100 | > 100 | > 100 | > 100 | > 100 | > 100 | > 100
O=c1c2ccccc2nc2n1NC(c1c(Cl)cccc1Cl)N2c1cccc(Cl)c1 (stereo not given) | 12.5 | 47.2 | > 100 | > 100 | > 100 | 5.2 | > 100 | > 100 | > 100 | 9.92
C[C@]12CC[C@@H]3c4ccc(O)cc4CC[C@H]3[C@@H]1C/C(=C\c1ccc([N+](=O)[O-])cc1)C2=O | > 100 | > 100 | > 100 | > 100 | > 100 | > 100 | > 100 | > 100 | > 100 | > 100
CC(C)(C)OC(=O)[N+](=N)C(=O)C1CCC(=O)N1C(=O)OCc1ccccc1 (stereo not given) | > 100 | > 100 | > 100 | > 100 | > 100 | > 100 | > 100 | > 100 | > 100 | > 100
CC(=O)N=C(N=Nc1c(O)[nH]c2ccc(C)cc12)NC(C)=O | > 100 | > 100 | > 100 | > 100 | > 100 | > 100 | > 100 | > 100 | > 100 | > 100
